Source: patent publication US4774248A, “Methods of treating depression and depressive states using 5-phenyl-1,4,5,6-tetrahydropyrimidine derivatives” (priority 1985, dated 1988)
Entries after “also recorded” stand apart in the source; their conditions may differ.

Tests used:
[1] = test system: central nervous system (CNS); assay: Neuropsychopharmacological profile (conclusions of the tests); type: in vivo, mice and rats; conditions: i.p.
Experimental: (§1) The results of toxicological and neuropsychopharmacological tests which were carried out with the products according to the invention have been summarized below. In these tests, solutions of the said products in distilled water were administered intraperitoneally in a volume of 20 ml/kg to male mice and in a volume of 5 ml/kg to male rats.

[2] = test system: hypothermia induced by apomorphine; assay: Interaction with apomorphine by gastric administration; type: in vivo; conditions: Mus musculus, male mice, apomorphine 16 mg/kg s.c., read-out: dose as from which the hypothermia induced by apomorphine is opposed
Experimental: Each test product is administered gastrically to male mice, in a volume of 20 ml/kg, 0.50 h before the subcutaneous injection of 16 mg/kg of apomorphine.

mice [3] = assay: Motility reduced by hypoxic aggression (acute hypobaric anoxia); type: in vivo; conditions: i.p., hydrochloride
Experimental: In these tests, solutions of the said products in distilled water were administered intraperitoneally in a volume of 20 ml/kg to male mice and in a volume of 5 ml/kg to male rats.

rats = assay: Overall behavior and reactivities in rats; type: in vivo; conditions: i.p.
How it was run: (§2)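 Male mice (20 ml/kg) and male rats (5 ml/kg) dosed intraperitoneally with compound in distilled water.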

[4] = test system: sleep induced by barbital; assay: Interaction with barbital; type: in vivo; conditions: mice, i.p.; barbital 220 mg/kg
Experimental: as §1
Half an hour after the administration of CRL 41 378, groups of 10 mice receive an intraperitoneal injection of barbital (220 mg/kg).

mice [5] = assay: Traction; type: in vivo; conditions: i.p.
Experimental: as §1
(§3) The test is performed on groups of 10 mice 30 minutes after the administration of CRL 41 378.

mice [6] = assay: Intergroup aggressiveness; type: in vivo; conditions: mice, i.p.
How it was run: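 Male mice housed 3 weeks per group in cage halves split by an opaque partition; groups of 3 given CRL 41 378 i.p. in distilled water.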

mice [7] = assay: Overall behavior and reactivities in mice; type: in vivo; conditions: i.p.
How it was run: as §2

[8] = test system: hypothermia, trembling and peripheral cholinergic symptoms induced by oxotremorine; assay: Interaction with oxotremorine; type: in vivo; conditions: mice, i.p.
How it was run: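 Male mice, groups of 6, given the compound intraperitoneally in distilled water (20 ml/kg) 0.5 h before 0.5 mg/kg oxotremorine i.p. Hypothermia, trembling and peripheral cholinergic symptoms were assessed.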

male mice = assay: Acute toxicity, intraperitoneal (LD0, LD30, LD60, LD100); type: in vivo; conditions: intraperitoneal
Experimental: as §1

[9] = test system: trembling and head twitches induced by 5-hydroxytryptophan (5-HTP); assay: Interaction with 5-hydroxytryptophan in association with an MAOI (nialamide); type: in vivo, male mice
How it was run: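 Male mice (groups of 10) got nialamide 20 mg/kg intragastric at T-18 h, test product i.p. in water at T-0.5 h, then (±)-5-HTP 20 mg/kg i.p. at T. Generalized trembling, partial trembling and head twitches scored yes/no over 2 h.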

mice [10] = assay: Asphyxiant anoxia caused by gallamine triiodoethylate; type: in vivo; conditions: i.p., gallamine triiodoethylate 32 mg/kg
Experimental: as §1
Groups of 10 mice receive CRL 41 378 30 minutes before the intraperitoneal administration of 32 mg/kg of gallamine triiodoethylate (reference curarizing agent).

anesthetized dogs = assay: Cardiovascular study in anesthetized dogs; type: in vivo
Experimental: Groups of 2 adult dogs (each weighing 10 to 18 kg), anesthetized with nembutal, receive each test product (i) by intraduodenal administration at successive doses of 0.1 mg/kg, 0.5 mg/kg, 1 mg/kg, 2.5 mg/kg, 5 mg/kb, 10 mg/kg and 20 mg/kg, and then (ii) if appropriate, by intravenous administration at a dose of 10 mg/kg. The effects of 10 μg/kg of isoprenaline and/or 2 μg/kg of norepinephrine after the intraduodenal administration of a cumulative dose of 39.1 mg/kg are also assessed.
The following are measured: the total arterial blood pressure, the diastolic arterial blood pressure, the heart rate, the blood flows through the femoral and cerebral arteries and saphenous veins, the rectal temperature, the skin temperature and the pressure of the gases (essentially O2) dissolved in the arterial blood.

mice [11] = assay: Four plate test; type: in vivo; conditions: i.p.
Experimental: as §1, §3

[12] = test system: stereotypies induced by apomorphine; assay: Interaction with apomorphine in rats; type: in vivo; conditions: i.p., apomorphine 0.5 mg/kg s.c.
Experimental: as §1
CRL 41 378 is administered to groups of 12 rats 0.5 h before the subcutaneous injection of 0.5 mg/kg of apomorphine.

[13] = test system: hypothermia, righting behavior and stereotypies induced by apomorphine; assay: Interaction with apomorphine in mice; type: in vivo
How it was run: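 Male mice, groups of 6, given test compound intraperitoneally in distilled water (20 ml/kg) 30 min before subcutaneous apomorphine at 1 or 16 mg/kg. Hypothermia, righting behaviour and stereotypies scored.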

[14] = i.p., nialamide + (±)-5-HTP, male mice

Compound: Cl.OC1(c2ccccc2)CN=CNC1 (stereo not shown) [CRL 41 382, 5-hydroxy-5-phenyl-1,4,5,6-tetrahydropyrimidine hydrochloride]
- antidepressant effects [1]: antidepressant effects appearing as from the lowest doses used
- peripheral anticholinergic activity [1]: absence of peripheral anticholinergic activity
- sedative effects [1]: sedative effects appearing transiently at the highest doses used (with no detectable decrease in the motor activity)
- stimulant effects ([1]; hydrochloride): absence of any motor stimulation; also recorded: absence of stimulant effects
- minimal effective dose [2]: ≥ 2 mg/kg
- motor recovery after acute hypobaric hypoxia (mice [3]): At doses of 16 mg/kg and 64 mg/kg, CRL 41 382 causes an increase in the motor recovery; also recorded: moderate increase in the motor recovery of mice after acute hypobaric hypoxia
- overall behavior and reactivities (rats; 0.5 mg/kg, 2 mg/kg and 8 mg/kg): behavior, reactivities and variations in the pupil diameter and rectal temperature which are analogous to those of the control group
- overall behavior and reactivities (rats; 32 mg/kg): moderate mydriasis for 1 h
- duration of the sleep induced by barbital [4]: practically no modification of the duration of the sleep induced by barbital
- motor incoordination / incapacity (mice [5]): does not cause major motor incapacity
- intergroup aggressiveness (number of fights) (mice [6]): practically no modification of the number of fights
- overall behavior and reactivities (mice [7]; 1 mg/kg, 4 mg/kg and 16 mg/kg): no distinct modification of the behavior and reactivities compared with the control animals
- overall behavior and reactivities (mice [7]; 64 mg/kg, hydrochloride): sedation for 1 h; also recorded: a decrease in the reactivity to touch and the fear reaction for 0.5 h
- minimal effective dose ([8]; Mus musculus, ip, read-out: dose as from which the hypothermia induced by oxotremorine is antagonized): ≥ 1 mg/kg
- action on signs of peripheral cholinergic stimulation induced by oxotremorine ([8]; oxotremorine 0.5 mg/kg): practically no modification of the trembling or the signs of peripheral cholinergic stimulation due to oxotremorine
- action on trembling induced by oxotremorine ([8]; oxotremorine 0.5 mg/kg): practically no modification of the trembling
- action on hypothermia induced by oxotremorine ([8]; oxotremorine 0.5 mg/kg, hydrochloride): the antagonism is very intense at a dose of 64 mg/kg; also recorded: antagonism of the hypothermia induced by apomorphine, oxotremorine and reserpine in mice
- LD0 (maximum non-lethal dose) (male mice): greater than 256 mg/kg
- LD60 (male mice): ~500 mg/kg
- analogy with β-adrenergic stimulants in the 5-HTP procedure ([9]; 5-HTP + MAOI): more closely resembles ritodrine or salbutamol
- head twitches [9, 14]: practically no modification of the head twitches
- partial trembling [9, 14]: moderate potentiation of the partial trembling
- time taken for convulsions and death / lethal effects of gallamine triiodoethylate (mice [10]): practically no modification of the time taken for convulsions and death to occur
- rectal temperature (anesthetized dogs): increases the rectal temperature
- skin temperature (anesthetized dogs): decreases the blood flows through the femoral and vertebral arteries and also the skin temperature
- α-adrenergic stimulant effect (anesthetized dogs): seems to have an α-adrenergic stimulant effect
- arterial blood pressure (anesthetized dogs; intraduodenal): hypertensive
- heart rate (anesthetized dogs; intraduodenal): practically no effect on the heart rate
- arterial blood pressure (anesthetized dogs; intravenous): hypotensive
- heart rate (anesthetized dogs; intravenous): bradycardic
- effects of isoprenaline (anesthetized dogs; isoprenaline 10 μg/kg): does not modify the effects of isoprenaline
- hypertension induced by norepinephrine (anesthetized dogs; norepinephrine 2 μg/kg): increases the hypertension caused by norepinephrine
- number of punished passes (mice [11]): practically no modification of the number of punished passes
- action on stereotypies induced by apomorphine [12]: practically no modification of the stereotypies induced by apomorphine
- minimal effective dose ([13]; Mus musculus, ip, read-out: dose as from which the hypothermia induced by apomorphine is antagonized): ≥ 1 mg/kg
- action on righting behavior and stereotypies due to apomorphine ([13]; i.p.): practically no modification of the righting behavior and stereotypies
- action on hypothermia induced by apomorphine ([13]; i.p., hydrochloride): as from a dose of 1 mg/kg and especially at doses of 16 to 64 mg/kg, CRL 41 382 opposes the hypothermia induced by apomorphine; also recorded: antagonism of the hypothermia induced by apomorphine, oxotremorine and reserpine in mice
